Measurements: US12173018B2, “Penicillin-binding protein inhibitors” (priority 2018, dated 2024)
In brackets after ≈: the same amount, converted by molar mass. Like-named read-outs stand apart in the source and are kept apart here.

Tests used:
Type in all cases: cell-based
E. coli ATCC 25922 = assay: Broth microdilution MIC, E. coli ATCC 25922; settings: Escherichia coli, ATCC25922; E. coli ATCC 25922, broth microdilution; read-out: MIC E. coli 25922
Outline: (§1)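 Strains are tested by standard CLSI broth microdilution. Log-phase cells, diluted by OD600 to 5×10^5 CFU/mL, meet 2-fold compound series and incubate 16-20 hours at 37° C before the lowest growth-free concentration is recorded.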

E. coli 901C = assay: microbe, parasite or virus in culture; settings: Escherichia coli, read-out: MIC E. coli 901C
Outline: as §1

E. coli AG100A = assay: microbe, parasite or virus in culture; settings: Escherichia coli, read-out: MIC E. coli AG100A
Outline: as §1

E. coli D22 = assay: microbe, parasite or virus in culture; settings: Escherichia coli
Outline: as §1

K. pneumoniae SI-117 = assay: microbe, parasite or virus in culture; settings: Klebsiella pneumoniae, SI117, read-out: MIC K. pneumoniae SI-117
Outline: as §1

K. pneumoniae UMM = assay: microbe, parasite or virus in culture; settings: Klebsiella pneumoniae, read-out: MIC K. pneumoniae UMM
Outline: as §1

[1] = system: N. gonorrhoeae ATCC 49226; assay: Liquid broth MIC, N. gonorrhoeae ATCC 49226; settings: Neisseria gonorrhoeae, ATCC49226; N. gonorrhoeae ATCC 49226, liquid broth; read-out: Minimum Inhibitory Concentration, N. gonorrhoeae ATCC 49226
Outline: (§2)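 Growth inhibition was scored by eye as the lowest compound concentration free of bacterial growth. Cultures from Kellogg's-supplemented GC agar, diluted to 5×10^5 CFU/mL, were exposed to serially diluted compound for 40-42 h at 36° C under 5% CO2.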

N. gonorrhoeae WHO F = assay: Liquid broth MIC, N. gonorrhoeae WHO F; settings: Neisseria gonorrhoeae; N. gonorrhoeae WHO F, liquid broth; read-out: Minimum Inhibitory Concentration, N. gonorrhoeae WHO F
Outline: as §2

[2] = hyper-permeable E. coli 901C, broth microdilution
[3] = hyper-permeable E. coli D22, broth microdilution, read-out: MIC E. coli D22
[4] = K. pneumoniae UMM producing SHV-5 and KPC-2

`CCN1C[C@H](CO)N(C(=O)NC(C(=O)N[C@H]2Cc3ccc(F)c(C(=O)O)c3OB2O)c2ccc(O)c(O)c2Cl)C(=O)C1=O` (stereo partly drawn) [Example 237, (3R)-3-(2-(2-chloro-3,4-dihydroxyphenyl)-2-((R)-4-ethyl-6-(hydroxymethyl)-2,3-dioxopiperazine-1-carboxamido)acetamido)-7-fluoro-2-hydroxy-3,4-dihydro-2H-benzo[e][1,2]oxaborinine-8-carboxylic acid] was tested, and the MIC (E. coli ATCC 25922) was 2 to 4 µg/mL, the MIC (E. coli 901C; [2]) was under 0.25 µg/mL and the MIC (E. coli AG100A) was under 0.25 µg/mL. The MIC (E. coli D22; [3]) was under 0.25 µg/mL, the MIC (K. pneumoniae SI-117) was 2 to 4 µg/mL and the MIC (K. pneumoniae UMM; [4]) was 2 to 4 µg/mL. It also gave an MIC [1] of 4 to 8 µg/mL (≈ 6.42 to 12.8 µM) and an MIC (N. gonorrhoeae WHO F) of 0.25 to 0.5 µg/mL (≈ 0.401 to 0.803 µM).
`CCN1C[C@H](CCN)N(C(=O)NC(C(=O)N[C@H]2Cc3ccc(F)c(C(=O)O)c3OB2O)c2ccc(O)c(O)c2Cl)C(=O)C1=O` (stereo partly drawn) [Example 238, (3R)-3-(2-((S)-6-(2-aminoethyl)-4-ethyl-2,3-dioxopiperazine-1-carboxamido)-2-(2-chloro-3,4-dihydroxyphenyl)acetamido)-7-fluoro-2-hydroxy-3,4-dihydro-2H-benzo[e][1,2]oxaborinine-8-carboxylic acid] was tested, and the MIC (E. coli ATCC 25922) was 32 to 64 µg/mL, the MIC (E. coli 901C; 901C) was 2 to 4 µg/mL and the MIC (E. coli AG100A) was 2 to 4 µg/mL. For the same compound, the MIC (E. coli D22; D22, read-out: MIC E. coli D22) was 8 to 16 µg/mL, the MIC (K. pneumoniae SI-117) was 8 to 16 µg/mL and the MIC (K. pneumoniae UMM) was 8 to 16 µg/mL. For the same compound, the MIC [1] was over 64 µg/mL and the MIC (N. gonorrhoeae WHO F) was 4 to 8 µg/mL (≈ 6.29 to 12.6 µM).
In the case of `CNCCN1CCN(C(=O)NC(C(=O)N[C@H]2Cc3cccc(C(=O)O)c3OB2O)c2ccc(O)c(O)c2Cl)C(=O)C1=O` (stereo partly drawn) [Example 239, (3R)-3-(2-(2-chloro-3,4-dihydroxyphenyl)-2-(4-(2-(methylamino)ethyl)-2,3-dioxopiperazine-1-carboxamido)acetamido)-2-hydroxy-3,4-dihydro-2H-benzo[e][1,2]oxaborinine-8-carboxylic acid], the MIC (E. coli ATCC 25922) is reported as 32 to 64 µg/mL, the MIC (E. coli 901C; [2]) is reported as 2 to 4 µg/mL and the MIC (E. coli AG100A) is reported as 2 to 4 µg/mL. It also gave an MIC (E. coli D22; [3]) of 2 to 4 µg/mL, an MIC (K. pneumoniae SI-117) of over 128 µg/mL and an MIC (K. pneumoniae UMM; [4]) of 2 to 4 µg/mL. The MIC [1] was over 64 µg/mL and the MIC (N. gonorrhoeae WHO F) was 4 to 8 µg/mL (≈ 6.62 to 13.2 µM).
